Test results: ChEMBL document CHEMBL4507290 (2021)

Columns and labels:
[1] = biological target: Aurora kinase A (Homo sapiens) (UniProt O14965); conditions: Compound concentration 1000.0 nM
[2] = biological target: Serine/threonine-protein kinase 24 (Homo sapiens) (UniProt Q9Y6E0); conditions: Compound concentration 1000.0 nM
[3] = biological target: Mitogen-activated protein kinase 14 (Homo sapiens) (UniProt Q16539); conditions: Compound concentration 1000.0 nM
[4] = biological target: Dual serine/threonine and tyrosine protein kinase (Homo sapiens) (UniProt Q6XUX3); conditions: Compound concentration 1000.0 nM
[5] = biological target: G protein-coupled receptor kinase 3 (Homo sapiens) (UniProt P35626); conditions: Compound concentration 1000.0 nM
Sequence of G protein-coupled receptor kinase 3 (Homo sapiens) (P35626 whole entry, canonical isoform): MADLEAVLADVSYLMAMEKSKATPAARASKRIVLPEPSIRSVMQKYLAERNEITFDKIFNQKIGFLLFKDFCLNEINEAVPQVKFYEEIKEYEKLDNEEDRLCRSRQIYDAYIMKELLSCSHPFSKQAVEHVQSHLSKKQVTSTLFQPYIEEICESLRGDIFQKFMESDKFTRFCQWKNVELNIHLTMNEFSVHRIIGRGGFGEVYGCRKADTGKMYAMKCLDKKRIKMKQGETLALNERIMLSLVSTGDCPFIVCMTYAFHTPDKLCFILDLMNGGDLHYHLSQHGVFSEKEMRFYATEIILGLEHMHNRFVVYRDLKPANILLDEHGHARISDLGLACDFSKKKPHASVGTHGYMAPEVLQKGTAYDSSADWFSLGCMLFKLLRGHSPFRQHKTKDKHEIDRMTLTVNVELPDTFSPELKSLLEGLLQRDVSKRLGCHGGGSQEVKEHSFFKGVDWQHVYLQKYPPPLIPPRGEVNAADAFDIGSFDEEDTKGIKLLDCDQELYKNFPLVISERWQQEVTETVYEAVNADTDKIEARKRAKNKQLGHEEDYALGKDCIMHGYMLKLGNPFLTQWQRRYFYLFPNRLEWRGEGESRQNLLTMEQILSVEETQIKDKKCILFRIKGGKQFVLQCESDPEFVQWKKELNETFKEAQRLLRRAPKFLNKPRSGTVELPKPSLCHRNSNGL

[6] = test system: Phosphatidylinositol 4,5-bisphosphate 3-kinase catalytic subunit alpha isoform (Homo sapiens), P42336 [M1043I]; conditions: Compound concentration 1000.0 nM
[7] = biological target: Serine/threonine-protein kinase WNK1 (Homo sapiens) (UniProt Q9H4A3); conditions: Compound concentration 1000.0 nM
[8] = biological target: Serine/threonine-protein kinase VRK2 (Homo sapiens) (UniProt Q86Y07); conditions: Compound concentration 1000.0 nM
Sequence of Serine/threonine-protein kinase VRK2 (Homo sapiens) (Q86Y07 whole entry): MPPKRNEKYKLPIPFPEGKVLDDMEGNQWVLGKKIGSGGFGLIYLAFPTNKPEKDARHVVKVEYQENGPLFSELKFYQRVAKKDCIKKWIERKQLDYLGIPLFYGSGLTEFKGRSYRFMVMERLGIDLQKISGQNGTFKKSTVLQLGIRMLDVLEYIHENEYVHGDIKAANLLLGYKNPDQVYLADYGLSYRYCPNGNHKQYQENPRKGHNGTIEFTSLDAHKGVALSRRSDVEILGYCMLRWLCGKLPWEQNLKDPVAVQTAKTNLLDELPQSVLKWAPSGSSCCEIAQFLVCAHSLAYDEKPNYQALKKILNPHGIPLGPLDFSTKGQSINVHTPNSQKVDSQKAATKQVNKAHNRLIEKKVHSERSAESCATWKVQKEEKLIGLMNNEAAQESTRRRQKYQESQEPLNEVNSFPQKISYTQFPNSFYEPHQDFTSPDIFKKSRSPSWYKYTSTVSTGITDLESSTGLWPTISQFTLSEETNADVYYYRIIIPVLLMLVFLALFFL

[9] = biological target: Calcium/calmodulin-dependent protein kinase type IV (Homo sapiens) (UniProt Q16566); conditions: Compound concentration 1000.0 nM
[10] = biological target: Tyrosine-protein kinase SYK (Homo sapiens) (UniProt P43405); conditions: Compound concentration 1000.0 nM
[11] = biological target: Serine/threonine-protein kinase 25 (Homo sapiens) (UniProt O00506); conditions: Compound concentration 1000.0 nM
Sequence of Serine/threonine-protein kinase 25 (Homo sapiens) (O00506 whole entry, looked up): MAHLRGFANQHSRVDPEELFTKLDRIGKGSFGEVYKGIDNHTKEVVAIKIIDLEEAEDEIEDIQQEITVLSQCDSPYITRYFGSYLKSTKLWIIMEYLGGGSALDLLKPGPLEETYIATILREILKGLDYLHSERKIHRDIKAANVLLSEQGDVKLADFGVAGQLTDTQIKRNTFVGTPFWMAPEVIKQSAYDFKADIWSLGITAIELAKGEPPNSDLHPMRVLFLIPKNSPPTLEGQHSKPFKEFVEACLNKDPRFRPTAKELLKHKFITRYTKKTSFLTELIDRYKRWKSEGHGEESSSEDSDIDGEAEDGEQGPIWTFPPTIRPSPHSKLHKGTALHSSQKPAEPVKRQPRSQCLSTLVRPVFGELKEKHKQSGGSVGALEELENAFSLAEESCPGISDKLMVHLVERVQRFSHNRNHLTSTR

[12] = biological target: Ribosomal protein S6 kinase alpha-6 (Homo sapiens) (UniProt Q9UK32); conditions: Compound concentration 1000.0 nM
[13] = biological target: Serine/threonine-protein kinase 38 (Homo sapiens) (UniProt Q15208); conditions: Compound concentration 1000.0 nM
[14] = biological target: Beta-3 adrenergic receptor (Homo sapiens) (UniProt P13945); conditions: Compound concentration 10.0 uM
[15] = biological target: Dual specificity tyrosine-phosphorylation-regulated kinase 1B (Homo sapiens) (UniProt Q9Y463); conditions: Compound concentration 1000.0 nM
[16] = biological target: Casein kinase II subunit alpha (Homo sapiens) (UniProt P68400); conditions: Compound concentration 1000.0 nM
[17] = biological target: BDNF/NT-3 growth factors receptor (Homo sapiens) (UniProt Q16620); conditions: Compound concentration 1000.0 nM
[18] = biological target: Receptor tyrosine-protein kinase erbB-2 (Homo sapiens) (UniProt P04626); conditions: Compound concentration 1000.0 nM
[19] = test system: Mast/stem cell growth factor receptor Kit (Homo sapiens), P10721 [D816H]; conditions: Compound concentration 1000.0 nM
Sequence of Mast/stem cell growth factor receptor Kit (Homo sapiens), P10721 [D816H] (P10721 whole entry D816H): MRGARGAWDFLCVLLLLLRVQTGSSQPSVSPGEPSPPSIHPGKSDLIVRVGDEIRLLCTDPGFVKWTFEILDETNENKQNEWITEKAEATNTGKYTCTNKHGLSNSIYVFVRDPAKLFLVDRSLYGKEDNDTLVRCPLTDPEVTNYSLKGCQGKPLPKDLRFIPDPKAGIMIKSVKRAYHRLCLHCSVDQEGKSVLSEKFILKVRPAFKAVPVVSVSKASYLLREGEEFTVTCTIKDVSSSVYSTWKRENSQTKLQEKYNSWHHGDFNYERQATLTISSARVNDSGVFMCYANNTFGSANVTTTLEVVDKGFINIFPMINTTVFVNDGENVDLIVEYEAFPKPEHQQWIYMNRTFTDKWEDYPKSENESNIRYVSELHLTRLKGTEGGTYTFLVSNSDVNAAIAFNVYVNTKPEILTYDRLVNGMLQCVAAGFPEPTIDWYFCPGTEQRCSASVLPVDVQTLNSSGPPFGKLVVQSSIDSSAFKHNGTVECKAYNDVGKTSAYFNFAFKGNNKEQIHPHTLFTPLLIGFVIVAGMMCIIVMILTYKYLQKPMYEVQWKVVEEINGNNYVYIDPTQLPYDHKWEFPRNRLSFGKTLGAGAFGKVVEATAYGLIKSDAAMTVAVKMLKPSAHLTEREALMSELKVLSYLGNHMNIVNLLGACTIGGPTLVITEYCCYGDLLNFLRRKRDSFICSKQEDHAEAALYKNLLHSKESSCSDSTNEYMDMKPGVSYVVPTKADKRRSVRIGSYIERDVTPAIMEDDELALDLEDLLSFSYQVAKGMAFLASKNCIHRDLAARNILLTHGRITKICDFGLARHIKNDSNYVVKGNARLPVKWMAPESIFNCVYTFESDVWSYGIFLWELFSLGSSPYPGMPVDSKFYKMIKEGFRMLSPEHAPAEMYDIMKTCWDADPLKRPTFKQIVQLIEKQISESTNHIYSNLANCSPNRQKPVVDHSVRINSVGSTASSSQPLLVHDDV

[20] = biological target: Cyclin-dependent kinase 18 (Homo sapiens) (UniProt Q07002); conditions: Compound concentration 1000.0 nM
[21] = biological target: Dual specificity protein kinase CLK1 (Homo sapiens) (UniProt P49759); conditions: Compound concentration 1000.0 nM
[22] = test system: Tyrosine-protein kinase ABL1 (Homo sapiens), P00519 [H396P]; conditions: Compound concentration 1000.0 nM
[23] = biological target: Tyrosine-protein kinase Mer (Homo sapiens) (UniProt Q12866); conditions: Compound concentration 1000.0 nM
[24] = biological target: STE20/SPS1-related proline-alanine-rich protein kinase (Homo sapiens) (UniProt Q9UEW8); conditions: Compound concentration 1000.0 nM
[25] = biological target: Muscarinic acetylcholine receptor M2 (Homo sapiens) (UniProt P08172); conditions: Compound concentration 10.0 uM
[26] = biological target: Casein kinase I isoform gamma-2 (Homo sapiens) (UniProt P78368); conditions: Compound concentration 1000.0 nM
[27] = biological target: Platelet-derived growth factor receptor alpha (Homo sapiens) (UniProt P16234); conditions: Compound concentration 1000.0 nM
[28] = biological target: Atypical kinase COQ8B, mitochondrial (Homo sapiens) (UniProt Q96D53); conditions: Compound concentration 1000.0 nM
[29] = biological target: Serine/threonine-protein kinase MRCK gamma (Homo sapiens) (UniProt Q6DT37); conditions: Compound concentration 1000.0 nM
Sequence of Serine/threonine-protein kinase MRCK gamma (Homo sapiens) (Q6DT37 whole entry): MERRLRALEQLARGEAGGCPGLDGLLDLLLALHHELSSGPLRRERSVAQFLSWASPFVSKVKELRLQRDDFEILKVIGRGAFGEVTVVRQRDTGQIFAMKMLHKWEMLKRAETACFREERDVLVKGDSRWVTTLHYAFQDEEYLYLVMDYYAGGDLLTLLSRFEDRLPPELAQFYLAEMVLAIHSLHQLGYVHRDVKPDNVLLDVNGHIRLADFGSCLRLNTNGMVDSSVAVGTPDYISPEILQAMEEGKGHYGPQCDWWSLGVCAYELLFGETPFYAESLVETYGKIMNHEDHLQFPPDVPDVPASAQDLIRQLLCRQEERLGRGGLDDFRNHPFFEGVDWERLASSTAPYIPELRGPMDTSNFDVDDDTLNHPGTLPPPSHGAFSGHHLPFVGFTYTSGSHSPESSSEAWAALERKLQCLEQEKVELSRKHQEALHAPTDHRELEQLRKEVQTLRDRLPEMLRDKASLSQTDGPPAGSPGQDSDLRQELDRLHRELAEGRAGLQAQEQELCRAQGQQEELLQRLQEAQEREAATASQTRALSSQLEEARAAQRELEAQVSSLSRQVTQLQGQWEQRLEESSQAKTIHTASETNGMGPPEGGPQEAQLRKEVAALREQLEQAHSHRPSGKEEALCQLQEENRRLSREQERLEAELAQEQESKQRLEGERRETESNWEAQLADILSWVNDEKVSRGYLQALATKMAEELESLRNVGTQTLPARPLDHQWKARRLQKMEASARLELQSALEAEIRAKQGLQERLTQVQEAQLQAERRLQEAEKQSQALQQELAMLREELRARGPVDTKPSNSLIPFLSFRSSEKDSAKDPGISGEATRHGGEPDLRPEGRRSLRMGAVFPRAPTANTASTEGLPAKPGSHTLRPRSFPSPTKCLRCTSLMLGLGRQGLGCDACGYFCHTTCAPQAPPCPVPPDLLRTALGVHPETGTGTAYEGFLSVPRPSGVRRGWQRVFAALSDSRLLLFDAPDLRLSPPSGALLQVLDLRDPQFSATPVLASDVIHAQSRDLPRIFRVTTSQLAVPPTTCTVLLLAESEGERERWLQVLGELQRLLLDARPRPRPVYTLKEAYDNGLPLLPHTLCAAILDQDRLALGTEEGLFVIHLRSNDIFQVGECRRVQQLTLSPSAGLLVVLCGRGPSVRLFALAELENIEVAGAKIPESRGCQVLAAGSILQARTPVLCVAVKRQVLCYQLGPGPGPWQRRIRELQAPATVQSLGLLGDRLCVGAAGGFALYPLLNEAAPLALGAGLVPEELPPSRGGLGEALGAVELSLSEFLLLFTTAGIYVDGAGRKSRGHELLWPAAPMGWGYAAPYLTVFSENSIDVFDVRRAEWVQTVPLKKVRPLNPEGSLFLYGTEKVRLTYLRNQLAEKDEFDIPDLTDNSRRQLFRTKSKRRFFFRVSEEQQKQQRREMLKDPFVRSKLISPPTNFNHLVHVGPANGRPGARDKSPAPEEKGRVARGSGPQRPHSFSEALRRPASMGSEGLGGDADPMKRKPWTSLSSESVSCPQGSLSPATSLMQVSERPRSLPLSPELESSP

[30] = biological target: Mitogen-activated protein kinase kinase kinase 14 (Homo sapiens) (UniProt Q99558); conditions: Compound concentration 1000.0 nM
[31] = biological target: 5-hydroxytryptamine receptor 1D (Homo sapiens) (UniProt P28221); conditions: Compound concentration 10.0 uM
[32] = biological target: Phosphorylase b kinase gamma catalytic chain, skeletal muscle/heart isoform (Homo sapiens) (UniProt Q16816); conditions: Compound concentration 1000.0 nM
[33] = biological target: Serine/threonine-protein kinase MARK1 (Homo sapiens) (UniProt Q9P0L2); conditions: Compound concentration 1000.0 nM
[34] = biological target: Ribosomal protein S6 kinase alpha-2 (Homo sapiens) (UniProt Q15349); conditions: Compound concentration 1000.0 nM
[35] = biological target: Serine/threonine-protein kinase BRSK1 (Homo sapiens) (UniProt Q8TDC3); conditions: Compound concentration 1000.0 nM
[36] = biological target: Proto-oncogene tyrosine-protein kinase receptor Ret (Homo sapiens) (UniProt P07949); conditions: Compound concentration 1000.0 nM
[37] = biological target: Protein-tyrosine kinase 2-beta (Homo sapiens) (UniProt Q14289); conditions: Compound concentration 1000.0 nM
[38] = biological target: Receptor-interacting serine/threonine-protein kinase 2 (Homo sapiens) (UniProt O43353); conditions: Compound concentration 1000.0 nM
[39] = test system: Mast/stem cell growth factor receptor Kit (Homo sapiens), P10721 [V559D]; conditions: Compound concentration 1000.0 nM
Sequence of Mast/stem cell growth factor receptor Kit (Homo sapiens), P10721 [V559D] (P10721 whole entry V559D): as the sequence (P10721 whole entry D816H) above, with V559D, H816D counted along it

[40] = biological target: MAP/microtubule affinity-regulating kinase 4 (Homo sapiens) (UniProt Q96L34); conditions: Compound concentration 1000.0 nM
[41] = biological target: Receptor-interacting serine/threonine-protein kinase 4 (Homo sapiens) (UniProt P57078); conditions: Compound concentration 1000.0 nM
Sequence of Receptor-interacting serine/threonine-protein kinase 4 (Homo sapiens) (P57078 whole entry): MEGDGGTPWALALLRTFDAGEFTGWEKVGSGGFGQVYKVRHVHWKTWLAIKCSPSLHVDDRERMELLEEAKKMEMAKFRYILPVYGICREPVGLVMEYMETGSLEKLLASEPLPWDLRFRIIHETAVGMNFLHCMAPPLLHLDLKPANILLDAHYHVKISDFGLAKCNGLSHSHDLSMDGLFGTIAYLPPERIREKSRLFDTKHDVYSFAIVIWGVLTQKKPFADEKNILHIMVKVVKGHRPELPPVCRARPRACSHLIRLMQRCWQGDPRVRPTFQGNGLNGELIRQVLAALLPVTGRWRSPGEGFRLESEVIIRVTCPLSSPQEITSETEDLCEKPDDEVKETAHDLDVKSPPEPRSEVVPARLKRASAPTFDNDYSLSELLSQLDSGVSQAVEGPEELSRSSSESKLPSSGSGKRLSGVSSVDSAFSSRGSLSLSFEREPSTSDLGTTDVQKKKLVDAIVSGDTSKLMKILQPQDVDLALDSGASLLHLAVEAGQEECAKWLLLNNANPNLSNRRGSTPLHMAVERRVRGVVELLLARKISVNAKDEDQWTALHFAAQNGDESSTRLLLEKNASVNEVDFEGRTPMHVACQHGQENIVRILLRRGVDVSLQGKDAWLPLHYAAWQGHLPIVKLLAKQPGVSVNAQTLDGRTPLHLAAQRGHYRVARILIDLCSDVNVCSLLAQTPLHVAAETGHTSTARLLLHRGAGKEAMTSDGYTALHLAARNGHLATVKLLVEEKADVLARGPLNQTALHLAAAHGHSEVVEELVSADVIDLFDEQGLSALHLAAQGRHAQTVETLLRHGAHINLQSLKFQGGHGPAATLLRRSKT

[42] = biological target: Death-associated protein kinase 3 (Homo sapiens) (UniProt O43293); conditions: Compound concentration 1000.0 nM
[43] = biological target: Calcium/calmodulin-dependent protein kinase type II subunit delta (Homo sapiens) (UniProt Q13557); conditions: Compound concentration 1000.0 nM
[44] = biological target: Calcium-dependent protein kinase 1 (Plasmodium falciparum) (UniProt P62344); conditions: Compound concentration 1000.0 nM
[45] = biological target: Serine/threonine-protein kinase Sgk2 (Homo sapiens) (UniProt Q9HBY8); conditions: Compound concentration 1000.0 nM

With `CN([C@@H]1CCc2c(CC(=O)O)c3cc(S(C)(=O)=O)ccc3n2C1)S(=O)(=O)c1ccc(F)cc1` the residual activity [1] was 100%, the residual activity [2] was 100% and the residual activity [3] was 100%. It also gave a residual activity [4] of 77%, a residual activity [5] of 81% and a residual activity [6] of 98%. The residual activity [7] was 95%, the residual activity [8] was 94% and the residual activity [9] was 87%. For the same molecule, the residual activity [10] was 100%, the residual activity [11] was 100% and the residual activity [12] was 71%. The residual activity [13] was 85%, the inhibition [14] was 0.851% and the residual activity [15] was 36%. It also gave a residual activity [16] of 91%, a residual activity [17] of 100% and a residual activity [18] of 100%. For the same molecule, the residual activity [19] was 97%, the residual activity [20] was 100% and the residual activity [21] was 100%. It also gave a residual activity [22] of 78%, a residual activity [23] of 100% and a residual activity [24] of 86%. It also gave an inhibition [25] of -9.24%, a residual activity [26] of 100% and a residual activity [27] of 100%. The residual activity [28] was 100%, the residual activity [29] was 93% and the residual activity [30] was 76%. The inhibition [31] was 0.539%, the residual activity [32] was 100% and the residual activity [33] was 89%. It also gave a residual activity [34] of 99%, a residual activity [35] of 94% and a residual activity [36] of 100%. It also gave a residual activity [37] of 100%, a residual activity [38] of 100% and a residual activity [39] of 92%. The residual activity [40] was 100%, the residual activity [41] was 75% and the residual activity [42] was 97%. For the same molecule, the residual activity [43] was 100%, the residual activity [44] was 75% and the residual activity [45] was 100%.
In the case of `CN([C@@H]1CCc2c(CC(=O)O)c3ccccc3n2C1)S(=O)(=O)c1ccc(F)cc1` [MK-7246], the residual activity [1] is reported as 100%, the residual activity [2] is reported as 100% and the residual activity [3] is reported as 100%. For the same molecule, the residual activity [4] was 82%, the residual activity [5] was 70% and the residual activity [6] was 100%. For the same molecule, the residual activity [7] was 96%, the residual activity [8] was 100% and the residual activity [9] was 85%. It also gave a residual activity [10] of 100%, a residual activity [11] of 99% and a residual activity [12] of 100%. It also gave a residual activity [13] of 100%, an inhibition [14] of 26.9% and a residual activity [15] of 44%. It also gave a residual activity [16] of 82%, a residual activity [17] of 100% and a residual activity [18] of 100%. It also gave a residual activity [19] of 95%, a residual activity [20] of 100% and a residual activity [21] of 100%. For the same molecule, the residual activity [22] was 100%, the residual activity [23] was 100% and the residual activity [24] was 100%. It also gave an inhibition [25] of -0.4%, a residual activity [26] of 100% and a residual activity [27] of 100%. It also gave a residual activity [28] of 100%, a residual activity [29] of 100% and a residual activity [30] of 100%. The inhibition [31] was -6.38%, the residual activity [32] was 100% and the residual activity [33] was 100%. The residual activity [34] was 84%, the residual activity [35] was 100% and the residual activity [36] was 100%. It also gave a residual activity [37] of 100%, a residual activity [38] of 92% and a residual activity [39] of 100%. The residual activity [40] was 100%, the residual activity [41] was 85% and the residual activity [42] was 87%. For the same molecule, the residual activity [43] was 100%, the residual activity [44] was 90% and the residual activity [45] was 100%.
